#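 Growth conditions: 96-well plates. Treatment: test compound, 48 hours, 5 concentrations. Analysis: linear interpolation between bracketing concentrations; unreached endpoints set to highest concentration. The concentration for full growth arrest is given as TGI.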
# Tests used:
# Experiment in all cases: inhibition of tumour cell growth, NCI panel, 48 h
# 786-0 renal = system: 786-0 renal
# A549 NSCLC = system: A549 NSCLC
# ACHN renal = system: ACHN renal
# BT-549 breast = system: BT-549 breast
# CAKI-1 renal = system: CAKI-1 renal
# CCRF-CEM leukemia = system: CCRF-CEM leukemia
# EKVX NSCLC = system: EKVX NSCLC
# HCC-2998 colon = system: HCC-2998 colon
# HCT-116 colon = system: HCT-116 colon
# HCT-15 colon = system: HCT-15 colon
# HOP-62 NSCLC = system: HOP-62 NSCLC
# HOP-92 NSCLC = system: HOP-92 NSCLC
# IGROV1 ovarian = system: IGROV1 ovarian
# K-562 leukemia = system: K-562 leukemia
# KM12 colon = system: KM12 colon
# M14 melanoma = system: M14 melanoma
# MOLT-4 leukemia = system: MOLT-4 leukemia
# NCI-H23 lung = system: NCI-H23 lung
# NCI-H522 lung = system: NCI-H522 lung
# OVCAR-3 ovarian = system: OVCAR-3 ovarian
# OVCAR-4 ovarian = system: OVCAR-4 ovarian
# OVCAR-5 ovarian = system: OVCAR-5 ovarian
# OVCAR-8 ovarian = system: OVCAR-8 ovarian
# RPMI-8226 leukemia = system: RPMI-8226 leukemia
# SF-268 CNS = system: SF-268 CNS
# SF-539 CNS = system: SF-539 CNS
# SK-MEL-28 melanoma = system: SK-MEL-28 melanoma
# SK-MEL-5 melanoma = system: SK-MEL-5 melanoma
# SK-OV-3 ovarian = system: SK-OV-3 ovarian
# SN12C renal = system: SN12C renal
# SNB-19 CNS = system: SNB-19 CNS
# SR leukemia = system: SR leukemia
# SW-620 colon = system: SW-620 colon
# T-47D breast = system: T-47D breast
# UO-31 renal = system: UO-31 renal
# COLO 205 colon = system: COLO 205 colon
# DU-145 prostate = system: DU-145 prostate
# HL-60(TB) leukemia = system: HL-60(TB) leukemia
# HT29 colon = system: HT29 colon
# LOX IMVI melanoma = system: LOX IMVI melanoma
# MALME-3M melanoma = system: MALME-3M melanoma
# MCF7 breast = system: MCF7 breast
# NCI-H226 lung = system: NCI-H226 lung
# NCI-H460 lung = system: NCI-H460 lung
# NCI/ADR-RES ovarian = system: NCI/ADR-RES ovarian
# PC-3 prostate = system: PC-3 prostate
# RXF 393 renal = system: RXF 393 renal
# SF-295 CNS = system: SF-295 CNS
# SK-MEL-2 melanoma = system: SK-MEL-2 melanoma
# SNB-75 CNS = system: SNB-75 CNS
# TK-10 renal = system: TK-10 renal
# U251 CNS = system: U251 CNS
# UACC-257 melanoma = system: UACC-257 melanoma
# UACC-62 melanoma = system: UACC-62 melanoma
smiles,measurement,setting,value
CN(C)CCOc1ccc2[nH]c(C(=O)N3CC(CCl)c4ccc(N)cc43)cc2c1 (stereo unspecified),TGI,786-0 renal,5.48 µM
same,TGI,A549 NSCLC,> 40.3 µM
same,TGI,ACHN renal,1.07 µM
same,TGI,BT-549 breast,0.612 µM
same,TGI,CAKI-1 renal,> 100 µM
same,TGI,CCRF-CEM leukemia,0.975 µM
same,TGI,EKVX NSCLC,5.92 µM
same,TGI,HCC-2998 colon,0.823 µM
same,TGI,HCT-116 colon,12.9 µM
same,TGI,HCT-15 colon,20.7 µM
same,TGI,HOP-62 NSCLC,0.69 µM
same,TGI,HOP-92 NSCLC,4.18 µM
same,TGI,IGROV1 ovarian,> 67.6 µM
same,TGI,K-562 leukemia,> 100 µM
same,TGI,KM12 colon,0.294 µM
same,TGI,M14 melanoma,1.39 µM
same,TGI,MOLT-4 leukemia,0.0565 µM
same,TGI,NCI-H23 lung,0.341 µM
same,TGI,NCI-H522 lung,0.0683 µM
same,TGI,OVCAR-3 ovarian,0.653 µM
same,TGI,OVCAR-4 ovarian,0.46 µM
same,TGI,OVCAR-5 ovarian,18.2 µM
same,TGI,OVCAR-8 ovarian,> 35.8 µM
same,TGI,RPMI-8226 leukemia,1.14 µM
same,TGI,SF-268 CNS,1.01 µM
same,TGI,SF-539 CNS,> 100 µM
same,TGI,SK-MEL-28 melanoma,3.21 µM
same,TGI,SK-MEL-5 melanoma,0.261 µM
same,TGI,SK-OV-3 ovarian,> 100 µM
same,TGI,SN12C renal,> 22.3 µM
same,TGI,SNB-19 CNS,21.8 µM
same,TGI,SR leukemia,> 100 µM
same,TGI,SW-620 colon,> 100 µM
same,TGI,T-47D breast,> 100 µM
same,TGI,UO-31 renal,> 40.7 µM
O=c1[nH]c(-c2ccc(Cl)cc2)cc2ccsc12,TGI,A549 NSCLC,> 100 µM
same,TGI,ACHN renal,> 100 µM
same,TGI,BT-549 breast,> 100 µM
same,TGI,CAKI-1 renal,7.04 µM
same,TGI,COLO 205 colon,> 100 µM
same,TGI,DU-145 prostate,6.68 µM
same,TGI,EKVX NSCLC,> 100 µM
same,TGI,HCC-2998 colon,9.61 µM
same,TGI,HCT-116 colon,> 100 µM
same,TGI,HCT-15 colon,> 100 µM
same,TGI,HL-60(TB) leukemia,> 100 µM
same,TGI,HOP-62 NSCLC,> 100 µM
same,TGI,HOP-92 NSCLC,77.4 µM
same,TGI,HT29 colon,> 100 µM
same,TGI,IGROV1 ovarian,> 100 µM
same,TGI,K-562 leukemia,> 100 µM
same,TGI,KM12 colon,> 100 µM
same,TGI,LOX IMVI melanoma,> 100 µM
same,TGI,M14 melanoma,> 100 µM
same,TGI,MALME-3M melanoma,5.8 µM
same,TGI,MCF7 breast,> 100 µM
same,TGI,MOLT-4 leukemia,> 100 µM
same,TGI,NCI-H226 lung,> 100 µM
same,TGI,NCI-H23 lung,> 100 µM
same,TGI,NCI-H460 lung,> 100 µM
same,TGI,NCI-H522 lung,> 100 µM
same,TGI,NCI/ADR-RES ovarian,> 100 µM
same,TGI,OVCAR-3 ovarian,4.26 µM
same,TGI,OVCAR-4 ovarian,> 100 µM
same,TGI,OVCAR-5 ovarian,> 100 µM
same,TGI,OVCAR-8 ovarian,> 100 µM
same,TGI,PC-3 prostate,> 100 µM
same,TGI,RPMI-8226 leukemia,19.1 µM
same,TGI,RXF 393 renal,> 100 µM
same,TGI,SF-268 CNS,> 100 µM
same,TGI,SF-295 CNS,23.4 µM
same,TGI,SK-MEL-2 melanoma,> 100 µM
same,TGI,SK-MEL-28 melanoma,> 100 µM
same,TGI,SK-MEL-5 melanoma,> 100 µM
same,TGI,SK-OV-3 ovarian,77.9 µM
same,TGI,SN12C renal,> 100 µM
same,TGI,SNB-19 CNS,7.71 µM
same,TGI,SNB-75 CNS,23.2 µM
same,TGI,SR leukemia,12.9 µM
same,TGI,SW-620 colon,> 100 µM
same,TGI,T-47D breast,59.9 µM
same,TGI,TK-10 renal,8.22 µM
same,TGI,U251 CNS,> 100 µM
same,TGI,UACC-257 melanoma,7.87 µM
same,TGI,UACC-62 melanoma,> 100 µM
same,TGI,UO-31 renal,> 100 µM
